Measured values reported in PubChem BioAssay AID248 (DTP/NCI, 2004).
Several values for one entry are separate records, joined by “and”; a condition that tells them apart may be missing. Equal values may be shown once. Inconclusive results and toxic doses are left out. Cut-off read from the data, not from the text of the source: active = T/C of 150% or more; inactive = T/C below 125%.

Tested on: L1210 leukemia ip in BDF1 mice, survival T/C
Assay: NCI In Vivo Anticancer Drug Screen. Data for tumor model L1210 Leukemia (intraperitoneal) in B6D2F1 (BDF1) mice
Settings: endpoint: mean survival time, higher = longer survival
Procedure, shortened: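 Ratio derived from survival: compound-dosed mice over vehicle-dosed mice, all bearing a transplantable tumor.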

[1] = dose: 12.5 mg/kg/injection, schedule: Q01DX009 (ip), vehicle: saline with Tween-80
[2] = dose: 25.0 mg/kg/injection, schedule: Q01DX001 (ip), vehicle: saline with Tween-80
[3] = dose: 25.0 mg/kg/injection, schedule: Q01DX009 (ip), vehicle: saline with Tween-80
[4] = dose: 25.0 mg/kg/injection, schedule: Q04DX002 (ip), vehicle: saline with Tween-80
[5] = dose: 50.0 mg/kg/injection, schedule: Q01DX001 (ip), vehicle: saline with Tween-80
[6] = dose: 50.0 mg/kg/injection, schedule: Q04DX002 (ip), vehicle: saline with Tween-80
[7] = dose: 100.0 mg/kg/injection, schedule: Q01DX001 (ip), vehicle: saline
[8] = dose: 50.0 mg/kg/injection, schedule: Q01DX009 (ip), vehicle: saline with Tween-80
[9] = dose: 100.0 mg/kg/injection, schedule: Q04DX003 (ip), vehicle: saline with Tween-80
[10] = dose: 200.0 mg/kg/injection, schedule: Q01DX001 (ip), vehicle: saline
[11] = dose: 400.0 mg/kg/injection, schedule: Q01DX001 (ip), vehicle: saline
[12] = dose: 100.0 mg/kg/injection, schedule: Q01DX009 (ip), vehicle: Klucel (hydroxypropylcellulose) (HPC)
[13] = dose: 200.0 mg/kg/injection, schedule: Q01DX009 (ip), vehicle: Klucel (hydroxypropylcellulose) (HPC)
[14] = dose: 400.0 mg/kg/injection, schedule: Q01DX009 (ip), vehicle: Klucel (hydroxypropylcellulose) (HPC)
[15] = dose: 10.0 mg/kg/injection, schedule: Q01DX001 (ip), vehicle: saline
[16] = dose: 20.0 mg/kg/injection, schedule: Q01DX001 (ip), vehicle: saline
[17] = dose: 40.0 mg/kg/injection, schedule: Q01DX001 (ip), vehicle: saline

Measured: T/C

CCCCCCCOC(CN)C(Cl)(Cl)Cl (stereo not given)
inactive: dose: 12.5 mg/kg/injection, schedule: Q01DX001 (ip), vehicle: saline with Tween-80 104 % of control | [1] 100 % of control and 104 % of control | [2] 100 % of control | [3] 97 % of control and 91 % of control | [4] 103 % of control and 108 % of control | [5] 94 % of control | [6] 103 % of control and 105 % of control

O=C1NC(=O)C2C3CCC(C3)C12 (stereo not given)
inactive: dose: 6.25 mg/kg/injection, schedule: Q04DX003 (ip), vehicle: saline 105 % of control | dose: 12.5 mg/kg/injection, schedule: Q04DX003 (ip), vehicle: saline 102 % of control | dose: 25.0 mg/kg/injection, schedule: Q04DX003 (ip), vehicle: saline 102 % of control

COC(=O)C1=C(O)CN(C)C1=O
inactive: dose: 12.5 mg/kg/injection, schedule: Q01DX001 (ip), vehicle: saline 98 % of control | dose: 25.0 mg/kg/injection, schedule: Q01DX001 (ip), vehicle: saline 93 % of control | dose: 25.0 mg/kg/injection, schedule: Q01DX009 (ip), vehicle: saline 101 % of control | dose: 50.0 mg/kg/injection, schedule: Q01DX001 (ip), vehicle: saline 91 % of control | dose: 50.0 mg/kg/injection, schedule: Q01DX009 (ip), vehicle: saline 103 % of control | [7] 86 % of control | dose: 100.0 mg/kg/injection, schedule: Q01DX009 (ip), vehicle: saline 96 % of control | dose: 150.0 mg/kg/injection, schedule: Q01DX009 (ip), vehicle: saline 94 % of control

S=c1nn[nH]n1C1CCCCC1
inactive: [3] 92 % of control | [8] 88 % of control | dose: 100.0 mg/kg/injection, schedule: Q01DX009 (ip), vehicle: saline with Tween-80 90 % of control | [9] 103 % of control | dose: 400.0 mg/kg/injection, schedule: Q04DX003 (ip), vehicle: saline with Tween-80 87 % of control

O=C1C(=O)C(CCc2ccccc2)C(=O)/C1=C\c1ccccc1 (stereo not given)
inactive: [9] 95 % of control | dose: 200.0 mg/kg/injection, schedule: Q04DX003 (ip), vehicle: saline with Tween-80 86 % of control

COC1=C[C@]23CCCN2C[C@H](O)c2cc4c(cc2[C@@H]3[C@@H]1O)OCO4
inactive: dose: 15.0 mg/kg/injection, schedule: Q01DX009 (ip), vehicle: saline 108 % of control | dose: 30.0 mg/kg/injection, schedule: Q01DX009 (ip), vehicle: saline 104 % of control | dose: 60.0 mg/kg/injection, schedule: Q01DX009 (ip), vehicle: saline 100 % of control

ClSSc1c2ccccc2cc2ccccc12
inactive: dose: 75.0 mg/kg/injection, schedule: Q01DX001 (ip), vehicle: carboxymethylcellulose (CMC) 91 % of control | dose: 150.0 mg/kg/injection, schedule: Q01DX001 (ip), vehicle: carboxymethylcellulose (CMC) 92 % of control | dose: 300.0 mg/kg/injection, schedule: Q01DX001 (ip), vehicle: carboxymethylcellulose (CMC) 88 % of control

CC1C2COCC2CC2OC21 (stereo not given)
inactive: dose: 50.0 mg/kg/injection, schedule: Q01DX001 (ip), vehicle: saline sonified 124 % of control | dose: 100.0 mg/kg/injection, schedule: Q01DX001 (ip), vehicle: saline sonified 109 % of control | dose: 200.0 mg/kg/injection, schedule: Q01DX001 (ip), vehicle: saline sonified 102 % of control

CCC(=O)c1ccc2c(c1)N(CCCN(C)C)c1ccccc1S2
inactive: dose: 6.25 mg/kg/injection, schedule: Q01DX009 (ip), vehicle: saline with Tween-80 98 % of control | [1] 96 % of control | [3] 115 % of control | [8] 107 % of control

CNC
inactive: [4] 95 % of control | [6] 88 % of control | dose: 100.0 mg/kg/injection, schedule: Q04DX002 (ip), vehicle: saline with Tween-80 88 % of control

CNC(=O)n1cncn1
inactive: [7] 95 % of control | dose: 100.0 mg/kg/injection, schedule: Q04DX003 (ip), vehicle: saline 101 % of control | [10] 93 % of control | dose: 200.0 mg/kg/injection, schedule: Q04DX003 (ip), vehicle: saline 95 % of control | [11] 95 % of control

O=C(Nc1ccc(S(=O)(=O)Nc2ccc(N=Nc3ccc(S(=O)(=O)Nc4nccs4)cc3)cc2)cc1)C(N1CC1)(N1CC1)N1CC1
inactive: dose: 15.0 mg/kg/injection, schedule: Q01DX001 (ip), vehicle: saline 105 % of control | dose: 30.0 mg/kg/injection, schedule: Q01DX001 (ip), vehicle: saline 105 % of control

O=C1c2ccccc2C(=O)c2c1cccc2S(=O)(=O)O
inactive: [2] 105 % of control | [5] 103 % of control | dose: 100.0 mg/kg/injection, schedule: Q01DX001 (ip), vehicle: saline with Tween-80 105 % of control

CCC(C)[n+]1cc([O-])on1 (stereo not given)
inactive: dose: 12.5 mg/kg/injection, schedule: Q01DX009 (ip), vehicle: Klucel (hydroxypropylcellulose) (HPC) 98 % of control | dose: 25.0 mg/kg/injection, schedule: Q01DX009 (ip), vehicle: Klucel (hydroxypropylcellulose) (HPC) 98 % of control | dose: 50.0 mg/kg/injection, schedule: Q01DX009 (ip), vehicle: Klucel (hydroxypropylcellulose) (HPC) 95 % of control

CC(C)(C)c1ccc(C(C)(C)C)c(O)c1
inactive: dose: 25.0 mg/kg/injection, schedule: Q04DX002 (ip), vehicle: Klucel (hydroxypropylcellulose) (HPC) 92 % of control and 90 % of control | dose: 50.0 mg/kg/injection, schedule: Q04DX002 (ip), vehicle: Klucel (hydroxypropylcellulose) (HPC) 95 % of control and 96 % of control | dose: 100.0 mg/kg/injection, schedule: Q04DX002 (ip), vehicle: Klucel (hydroxypropylcellulose) (HPC) 92 % of control and 104 % of control | dose: 200.0 mg/kg/injection, schedule: Q04DX002 (ip), vehicle: Klucel (hydroxypropylcellulose) (HPC) 92 % of control and 86 % of control

C(=C/P(c1ccccc1)c1ccccc1)/P(c1ccccc1)c1ccccc1
inactive: dose: 75.0 mg/kg/injection, schedule: Q01DX001 (ip), vehicle: saline 108 % of control | dose: 150.0 mg/kg/injection, schedule: Q01DX001 (ip), vehicle: saline 98 % of control | dose: 300.0 mg/kg/injection, schedule: Q01DX001 (ip), vehicle: saline 93 % of control

COC(=O)CCC(C)=O
inactive: [7] 102 % of control | [10] 102 % of control | [11] 100 % of control

Cc1ccc(NC(=O)OCC2CC3C=CC2C3)cc1NC(=O)OCC1CC2C=CC1C2 (stereo not given)
inactive: [12] 87 % of control | [13] 90 % of control | [14] 90 % of control

CC(C)NCCNc1ccnc2cc(Cl)ccc12
inactive: [15] 94 % of control | [16] 98 % of control | [17] 96 % of control

CC/C=N\NC
inactive: dose: 5.0 mg/kg/injection, schedule: Q01DX001 (ip), vehicle: saline 111 % of control | dose: 6.6 mg/kg/injection, schedule: Q01DX015 (ip), vehicle: saline 94 % of control | [15] 103 % of control | dose: 10.0 mg/kg/injection, schedule: Q01DX015 (ip), vehicle: saline 94 % of control | dose: 15.0 mg/kg/injection, schedule: Q01DX015 (ip), vehicle: saline 100 % of control | [16] 112 % of control | dose: 22.5 mg/kg/injection, schedule: Q01DX015 (ip), vehicle: saline 95 % of control | [17] 120 % of control

C/C(=N\O)c1ccc2nc(C)cc(Cl)c2c1
inactive: [7] 102 % of control | [10] 109 % of control | [11] 95 % of control

CS(=O)(=O)OCC(O)C(O)CI (stereo not given)
inactive: dose: 75.0 mg/kg/injection, schedule: Q01DX001 (ip), vehicle: water 104 % of control | dose: 150.0 mg/kg/injection, schedule: Q01DX001 (ip), vehicle: water 111 % of control | dose: 300.0 mg/kg/injection, schedule: Q01DX001 (ip), vehicle: water 116 % of control

CC(C)(C)c1cc(CO)cc(C(C)(C)C)c1O
inactive: [12] 108 % of control | dose: 100.0 mg/kg/injection, schedule: Q04DX003 (ip), vehicle: Klucel (hydroxypropylcellulose) (HPC) 91 % of control | [13] 100 % of control | dose: 200.0 mg/kg/injection, schedule: Q04DX003 (ip), vehicle: Klucel (hydroxypropylcellulose) (HPC) 92 % of control | [14] 96 % of control | dose: 400.0 mg/kg/injection, schedule: Q04DX003 (ip), vehicle: Klucel (hydroxypropylcellulose) (HPC) 105 % of control
